Data set [1] has as its system DTH reaction in Balb/c mice. Kind of data set: Delayed type hypersensitivity (DTH) reaction, Tetanus Toxoid footpad swelling. The data set is classed as in vivo. Particulars: female Balb/c mice, sc. once daily day 1-11, Tetanus Toxoid immunization day 2, challenge day 9, footpad swelling. On the procedure:
In the delayed type hypersensitivity (DTH) procedure, the effect of a compound on the development of an immune reaction can be observed in mice (details in example 16). Briefly, the compound is administered daily and the animals are immunized subsequently with an antigen in adjuvant. After 7 days the animals are challenged locally by injecting the antigen locally (mostly in the foot) and measuring the subsequently developing local swelling in response to the deposition of the antigen. The degree of this swelling is related to the development of an immune response against the eliciting antigen. The inhibiting action of a compound of this invention on the development of this swelling can be determined, by comparing the treatment group with a placebo treated group. As a reference treatment, administration of glucocorticoids can be used.
Groups of eight female Balb/c (Harlan, Zeist, The Netherlands) mice were used, approximately 8 weeks of age at the start of the experiment. These mice were housed in Macrolon cages, under standard conditions and acclimatized for 3-5 days before the start of the experiment. The groups received either compound or placebo.
They were weighed on day 1 and on the last treatment day. Animals were treated once daily by subcutaneous (sc) injection in the back of the neck or by oral gavage from day 1 till day 11 with a test compound in concentration range from 1.2, 3, 4, 6, to 12 mg/kg. The injection volume was 0.1 mL of a vehicle for injection consisting of physiological saline containing 0.5% gelatin and 5% mannitol. A placebo treated group (vehicle only) and a group treated with 4 mg/kg dexamethasone as reference compound were included in each experiment.
On day 2, animals were immunized with 0.1 ml of a stable suspension of 3.75 Lf Tetanus Toxoid antigen (TT from the RIVM, Zeist, The Netherlands) in 1 mg/ml dimethyl dioctadecylammonium bromide (DDA) from Phase Sep, at 2 places on the breast intradermally.
On day 9 animals were challenged on the ventral side of the right [R] paw with 0.05 mL of a solution containing 50 Lf TT and 1 mg Al(OH)3 per mL. The left [L] footpad (control) received the vehiculum with Al(OH)3 only. After 24 and 48 hours, the left and right footpad thickness (parameters L and R, respectively) were measured with a calipers densitometer in mm and the percentage of antigen-specific footpad swelling was calculated according to the formula: [(R−L)/L]×100%. Results

Regarding `C#CC1(O)CCC2C3C(C)CC4=C(CCC(=C)C4)C3CCC21C` (stereo not drawn) [example 1, (7α,17α)-7-methyl-3-methylene-19-norpregn-5(10)-en-20-yn-17-ol], the “Amount of compound given sc. in mg/kg leading to 50% reduction of the DTH reaction as compared to placebo” value in data set [1] was 1.9 to 3.4 mg/kg.

The melting point is the temperature of the solid-liquid transition. As for `C=C1CCC2=C(C1)C[C@@H](C)[C@@H]1[C@@H]2CC[C@]2(C)[C@@H](O)CC[C@@H]12` [example 2, (7α,17β)-7-methyl-3-methyleneestr-5(10)-en-17-ol], the melting point was 111.8 °C. In data set [1], the “Amount of compound given sc. in mg/kg leading to 50% reduction of the DTH reaction as compared to placebo” value stood at 20 mg/kg.

As for `C#CC1(O)CCC2C3C(C)CC45CC(=C)CCC4(O5)C3CCC21C` (stereo not drawn) [example 3, (5β,7α,17α)-5,10-epoxy-7-methyl-3-methylene-19-norpregn-20-yn-17-ol], the “Amount of compound given sc. in mg/kg leading to 50% reduction of the DTH reaction as compared to placebo” value in data set [1] is reported as 11 mg/kg.

Regarding `C=C1CC[C@@]23O[C@]2(C1)C[C@@H](C)[C@H]1[C@@H]2CC[C@H](O)[C@@]2(C)CC[C@@H]13` [example 4, (5β,7α,17β)-5,10-epoxy-7-methyl-3-methyleneestran-17-ol], the melting point is 125 °C. Further, the “Amount of compound given sc. in mg/kg leading to 50% reduction of the DTH reaction as compared to placebo” value in data set [1] was more than 20 mg/kg.

In the case of `C=C[C@]1(O)CC[C@H]2[C@H]3[C@H](CC[C@@]21C)[C@H]1CCC(=C)C[C@@H]1C[C@H]3C` [example 5, (5α,7α,17α)-7-methyl-3-methylene-19-norpregn-20-en-17-ol], the “Amount of compound given sc. in mg/kg leading to 50% reduction of the DTH reaction as compared to placebo” value in data set [1] stood at 10 mg/kg.

Regarding `C=C1CC[C@H]2[C@@H](C1)C[C@@H](C)[C@@H]1[C@@H]2CC[C@@]2(C)[C@H]1CC[C@@]2(O)CC` [example 7, (5β,7α,17α)-7-Methyl-3-methylene-19-norpregnan-17-ol], in data set [1], the “Amount of compound given sc. in mg/kg leading to 50% reduction of the DTH reaction as compared to placebo” value came to 6 mg/kg.

Values taken from US6579864B1, “3-methylene steroid derivatives” (Akzo Nobel NV, priority 1999, dated 2003).
